According to US20200392138A1, “PESTICIDALLY ACTIVE MESOIONIC HETEROCYCLIC COMPOUNDS” (Syngenta Participations AG, priority 2017, published 2020):

Assays:
Format in all cases: in vivo
Diabrotica balteata = Diabrotica balteata (corn root worm), maize sprouts sprayed, L2 larvae; settings: 96 h, application rate of 200 ppm, 4 days after infestation, read-out: effect in at least one of the two categories (mortality or growth inhibition)
Procedure: Diabrotica balteata (Corn Root Worm)
Maize sprouts placed onto an agar layer in 24-well microtiter plates were treated with aqueous test solutions prepared from 10′000 ppm DMSO stock solutions by spraying. After drying, the plates were infested with L2 larvae (6 to 10 per well). The samples were assessed for mortality and growth inhibition in comparison to untreated samples 4 days after infestation.
(§1) The following compounds gave an effect of at least 80% in at least one of the two categories (mortality or growth inhibition) at an application rate of 200 ppm: […]

Spodoptera littoralis = Spodoptera littoralis (Egyptian cotton leaf worm), cotton leaf discs sprayed, L1 larvae; settings: foliar, 72 h, application rate of 200 ppm, 3 days after infestation, read-out: control (mortality, anti-feeding effect, growth inhibition)
Procedure: Spodoptera littoralis (Egyptian Cotton Leaf Worm)
Cotton leaf discs were placed onto agar in 24-well microtiter plates and sprayed with aqueous test solutions prepared from 10′000 ppm DMSO stock solutions. After drying the leaf discs were infested with five L1 larvae. The samples were assessed for mortality, anti-feeding effect, and growth inhibition in comparison to untreated samples 3 days after infestation. Control of Spodoptera littoralis by a test sample is given when at least one of the categories mortality, anti-feedant effect, and growth inhibition is higher than the untreated sample.

Thrips tabaci = Thrips tabaci (onion thrips) feeding/contact activity, sunflower leaf discs; settings: foliar, 144 h, application rate of 200 ppm, mixed ages, 6 days after infestation
Procedure: Thrips tabaci (Onion Thrips) Feeding/Contact Activity
Sunflower leaf discs were placed on agar in 24-well microtiter plates and sprayed with aqueous test solutions prepared from 10′000 ppm DMSO stock solutions. After drying the leaf discs were infested with a thrips population of mixed ages. The samples were assessed for mortality 6 days after infestation.

Euschistus heros = Euschistus heros (neotropical brown stink bug), soybean leaves sprayed, N2 nymphs; settings: 120 h, application rate of 200 ppm, 5 days after infestation, read-out: effect in at least one of the two categories (mortality or growth inhibition)
Procedure: Euschistus heros (Neotropical Brown Stink Bug)
Soybean leaves on agar in 24-well microtiter plates were sprayed with aqueous test solutions prepared from 10′000 ppm DMSO stock solutions. After drying the leaves were infested with N2 nymphs. The samples were assessed for mortality and growth inhibition in comparison to untreated samples 5 days after infestation.
as §1

Myzus persicae = Myzus persicae (green peach aphid): feeding/contact activity, sunflower leaf discs; settings: foliar, 144 h, application rate of 200 ppm, mixed ages, 6 days after infestation
Procedure: Myzus persicae (Green Peach Aphid): Feeding/Contact Activity
Sunflower leaf discs were placed onto agar in a 24-well microtiter plate and sprayed with aqueous test solutions prepared from 10′000 ppm DMSO stock solutions. After drying, the leaf discs were infested with an aphid population of mixed ages. The samples were assessed for mortality 6 days after infestation.

Structure (SMILES) | percent effect (mortality or growth inhibition) at 200 ppm (Diabrotica balteata) | mortality at 200 ppm (Spodoptera littoralis) | mortality at 200 ppm (Thrips tabaci) | percent effect (mortality or growth inhibition) at 200 ppm (Euschistus heros) | mortality at 200 ppm (Myzus persicae)
Cn1ccc2n1c(=O)c(-c1cc(Cl)cc(Cl)c1)c([O-])[n+]2Cc1cnc(Cl)s1 [Compound A1, 4-[(2-chlorothiazol-5-yl)methyl]-6-(3,5-dichlorophenyl)-1-methyl-7-oxo-pyrazolo[1,5-a]pyrimidin-4-ium-5-olate] | ≥ 80% | ≥ 80% | – | – | –
Cn1ccc2n1c(=O)c(-c1cccc(C(F)(F)F)c1)c([O-])[n+]2CCC#N [Compound B2, 4-(2-cyanoethyl)-1-methyl-7-oxo-6-[3-(trifluoromethyl)phenyl]pyrazolo[1,5-a]pyrimidin-4-ium-5-olate] | ≥ 80% | – | ≥ 80% | ≥ 80% | –
Cn1ccc2n1c(=O)c(-c1cc(Cl)cc(Cl)c1)c([O-])[n+]2CCn1cncn1 [Compound B21] | – | – | – | – | ≥ 80%
